# Laboratory results from patent US11053204B2, “Pyrimidinyloxy benzene derivatives as herbicides” (FMC Corporation, priority 2015, dated 2021).
# How the values were obtained:
# Assay type in all cases: in vivo
# [1] = test system: johnsongrass (Sorghum halepense); assay: Test C preemergence, plant response rating
# [2] = test system: barnyardgrass (Echinochloa crus-galli); assay: Test C preemergence, plant response rating; settings: Preemergence
# [3] = test system: pigweed, palmer (palmer pigweed, Amaranthus palmeri); assay: Test C preemergence, plant response rating
# [4] = test system: nightshade (eastern black nightshade, Solanum ptycanthum); assay: Test C preemergence, plant response rating
# [5] = test system: wild poinsettia (Euphorbia heterophylla); assay: Test C preemergence, plant response rating
# [6] = test system: windgrass (Apera spica-venti); assay: Test C preemergence, plant response rating
# [7] = test system: Canada thistle (Cirsium arvense); assay: Test C postemergence, plant response rating; settings: for Canada Thistle plant response rating: scale 0 to 100 (0 no effect, 100 complete control)
# Method in brief: (§1)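 Both timings shared one formulation, a non-phytotoxic solvent mixture with surfactant, and a greenhouse period of 13 to 15 d. Preemergence used seeded loam/sand or silt loam soil, postemergence used 2 to 18 cm plants; visual ratings ran from 0 (no effect) to 100 (complete control).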
# [8] = test system: buckwheat, wild (wild buckwheat, Polygonum convolvulus); assay: Test C postemergence, plant response rating; settings: for Buckwheat, Wild plant response rating: scale 0 to 100 (0 no effect, 100 complete control)
# Method in brief: as §1
# [9] = test system: field poppy (Papaver rhoeas); assay: Test C postemergence, plant response rating; settings: for Field Poppy plant response rating: scale 0 to 100 (0 no effect, 100 complete control)
# Method in brief: as §1
# [10] = test system: field violet (Viola arvensis); assay: Test C postemergence, plant response rating; settings: for Field Violet plant response rating: scale 0 to 100 (0 no effect, 100 complete control)
# Method in brief: as §1
# [11] = test system: geranium, cutleaf (cutleaf geranium, Geranium dissectum); assay: Test C postemergence, plant response rating; settings: for Geranium, Cutleaf plant response rating: scale 0 to 100 (0 no effect, 100 complete control)
# Method in brief: as §1
# [12] = test system: johnsongrass (Sorghum halepense); assay: Test C postemergence, plant response rating; settings: for Johnsongrass plant response rating: scale 0 to 100 (0 no effect, 100 complete control)
# Method in brief: as §1
# [13] = test system: nightshade (eastern black nightshade, Solanum ptycanthum); assay: Test C postemergence, plant response rating; settings: for Nightshade plant response rating: scale 0 to 100 (0 no effect, 100 complete control)
# Method in brief: as §1
# [14] = test system: pigweed, palmer (palmer pigweed, Amaranthus palmeri); assay: Test C postemergence, plant response rating; settings: for Pigweed, Palmer plant response rating: scale 0 to 100 (0 no effect, 100 complete control)
# Method in brief: as §1
# [15] = test system: speedwell (bird's-eye speedwell, Veronica persica); assay: Test C postemergence, plant response rating; settings: for Speedwell plant response rating: scale 0 to 100 (0 no effect, 100 complete control)
# Method in brief: as §1
# [16] = test system: surinam grass (Brachiaria decumbens); assay: Test C postemergence, plant response rating
# Method in brief: as §1
# [17] = test system: wild mustard (Sinapis arvensis); assay: Test C postemergence, plant response rating
# Method in brief: as §1
# [18] = test system: wild poinsettia (Euphorbia heterophylla); assay: Test C postemergence, plant response rating; settings: for Poinsettia, Wild plant response rating: scale 0 to 100 (0 no effect, 100 complete control)
# Method in brief: as §1
# [19] = test system: windgrass (Apera spica-venti); assay: Test C postemergence, plant response rating
# Method in brief: as §1
# [20] = 125 g ai/ha, scale 0 to 100 (0 no effect, 100 complete control)
smiles,measurement,setting,value
FC(F)(F)CCCc1c(Br)cccc1Oc1ncc(Cl)cn1 [Compound 89],"Plant response rating, Johnsongrass","[1]; 31 g ai/ha, scale 0 to 100",40
same,"Plant response rating, Johnsongrass","[1]; 62 g ai/ha, scale 0 to 100",30
same,"Plant response rating, Johnsongrass","[1]; 125 g ai/ha, scale of 0 to 100",60
same,"Plant response rating, Barnyardgrass","[2]; 125 g ai/ha, scale of 0 to 100",100
same,"Plant response rating, Barnyardgrass","[2]; 16 g ai/ha, scale 0 to 100",5
same,"Plant response rating, Barnyardgrass","[2]; 31 g ai/ha, scale 0 to 100",35
same,"Plant response rating, Barnyardgrass","[2]; 62 g ai/ha, scale 0 to 100",90
same,"Plant response rating, Pigweed, Palmer","[3]; 31 g ai/ha, scale 0 to 100",70
same,"Plant response rating, Pigweed, Palmer","[3]; 62 g ai/ha, scale 0 to 100",90
same,"Plant response rating, Pigweed, Palmer","[3]; 125 g ai/ha, scale of 0 to 100",98
same,"Plant response rating, Nightshade","[4]; 31 g ai/ha, scale 0 to 100",75
same,"Plant response rating, Nightshade","[4]; 62 g ai/ha, scale 0 to 100",65
same,"Plant response rating, Nightshade","[4]; 125 g ai/ha, scale of 0 to 100",85
same,"Plant response rating, Poinsettia, Wild","[5]; 31 g ai/ha, scale 0 to 100",0
same,"Plant response rating, Poinsettia, Wild","[5]; 62 g ai/ha, scale 0 to 100",20
same,"Plant response rating, Poinsettia, Wild","[5]; 125 g ai/ha, scale of 0 to 100",40
same,"Plant response rating, Windgrass","[6]; 31 g ai/ha, scale 0 to 100",50
same,"Plant response rating, Windgrass","[6]; 62 g ai/ha, scale 0 to 100",65
same,"Plant response rating, Windgrass","[6]; 125 g ai/ha, scale of 0 to 100",100
same,"Plant response rating, Canada Thistle","[7]; 16 g ai/ha, scale of 0 to 100",80
same,"Plant response rating, Canada Thistle","[7]; 31 g ai/ha, scale 0 to 100",80
same,Canada Thistle plant response rating,[7]; 62 g ai/ha,85
same,Canada Thistle plant response rating,[7]; 125 g ai/ha,85
same,"Plant response rating, Buckwheat, Wild","[8]; 16 g ai/ha, scale of 0 to 100",70
same,"Plant response rating, Buckwheat, Wild","[8]; 31 g ai/ha, scale 0 to 100",75
same,"Buckwheat, Wild plant response rating",[8]; 62 g ai/ha,75
same,"Buckwheat, Wild plant response rating",[8]; 125 g ai/ha,85
same,"Plant response rating, Field Poppy","[9]; 16 g ai/ha, scale of 0 to 100",90
same,"Plant response rating, Field Poppy","[9]; 31 g ai/ha, scale 0 to 100",95
same,Field Poppy plant response rating,[9]; 62 g ai/ha,100
same,Field Poppy plant response rating,[9]; 125 g ai/ha,100
same,"Plant response rating, Field Violet","[10]; 16 g ai/ha, scale of 0 to 100",100
same,"Plant response rating, Field Violet","[10]; 31 g ai/ha, scale 0 to 100",100
same,Field Violet plant response rating,[10]; 62 g ai/ha,100
same,Field Violet plant response rating,[10]; 125 g ai/ha,100
same,"Plant response rating, Geranium, Cutleaf","[11]; 16 g ai/ha, scale of 0 to 100",35
same,"Plant response rating, Geranium, Cutleaf","[11]; 31 g ai/ha, scale 0 to 100",35
same,"Geranium, Cutleaf plant response rating",[11]; 62 g ai/ha,50
same,"Geranium, Cutleaf plant response rating",[11]; 125 g ai/ha,55
same,"Plant response rating, Johnsongrass","[12]; 16 g ai/ha, scale of 0 to 100",5
same,"Plant response rating, Johnsongrass","[12]; 31 g ai/ha, scale 0 to 100",10
same,Johnsongrass plant response rating,[12]; 62 g ai/ha,10
same,Johnsongrass plant response rating,[12]; 125 g ai/ha,85
same,"Plant response rating, Nightshade","[13]; 16 g ai/ha, scale of 0 to 100",75
same,"Plant response rating, Nightshade","[13]; 31 g ai/ha, scale 0 to 100",90
same,Nightshade plant response rating,[13]; 62 g ai/ha,95
same,Nightshade plant response rating,[13]; 125 g ai/ha,95
same,"Plant response rating, Pigweed, Palmer","[14]; 16 g ai/ha, scale of 0 to 100",55
same,"Plant response rating, Pigweed, Palmer","[14]; 31 g ai/ha, scale 0 to 100",75
same,"Pigweed, Palmer plant response rating",[14]; 62 g ai/ha,80
same,"Pigweed, Palmer plant response rating",[14]; 125 g ai/ha,85
same,"Plant response rating, Speedwell","[15]; 16 g ai/ha, scale of 0 to 100",95
same,"Plant response rating, Speedwell","[15]; 31 g ai/ha, scale 0 to 100",100
same,Speedwell plant response rating,[15]; 62 g ai/ha,100
same,Speedwell plant response rating,[15]; 125 g ai/ha,100
same,"Plant response rating, Surinam Grass","[16]; 16 g ai/ha, scale of 0 to 100",10
same,"Plant response rating, Surinam Grass","[16]; 31 g ai/ha, scale 0 to 100",10
same,Surinam Grass plant response rating,[16]; [20],20
same,"Plant response rating, Mustard, Wild","[17]; 16 g ai/ha, scale of 0 to 100",100
same,"Mustard, Wild plant response rating","[17]; 62 g ai/ha, scale 0 to 100 (0 no effect, 100 complete control)",100
same,"Plant response rating, Poinsettia, Wild","[18]; 16 g ai/ha, scale of 0 to 100",55
same,"Plant response rating, Poinsettia, Wild","[18]; 31 g ai/ha, scale 0 to 100",60
same,"Poinsettia, Wild plant response rating",[18]; 62 g ai/ha,80
same,"Poinsettia, Wild plant response rating",[18]; 125 g ai/ha,90
same,"Plant response rating, Windgrass","[19]; 16 g ai/ha, scale of 0 to 100",10
same,"Plant response rating, Windgrass","[19]; 31 g ai/ha, scale 0 to 100",10
same,Windgrass plant response rating,[19]; [20],35
